The values that follow come from PubChem BioAssay AID179 (DTP/NCI, 2004).

This experiment relates to CEM cells HIV-1 protection, formazan growth assay. Briefly: NCI AIDS Antiviral Assay. Particulars: for IC50: measured here: growth of uninfected CEM cells. The procedure, abridged:
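Protection of CEM cells against HIV-1 was scored from cell growth (soluble formazan) across five concentrations, with parallel uninfected cells. Lack of protection may reflect toxicity.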

Calls of active or inactive are those of the source.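 The calls were made as follows: active = compounds giving half or more protection of infected cells from virus-caused growth loss, again on retest; inactive = the rest.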 Where a SMILES comes first, the peptide text is derived from it. The star is where a group is joined. Trt = c1ccc(C(c2ccccc2)(c2ccccc2)*)cc1; Cbz = O=C(OCc1ccccc1)*; OtBu = CC(C)(C)O*; X14 = CC(C)COC*

Consider `NS(=O)(=O)c1cc2c(cc1Cl)NC(C(=O)NNC(=O)c1ccncc1)=NS2(=O)=O`, for which the EC50 (as a rule, the midpoint of the concentration-response curve) was over 77.6 µM and the IC50 (usually the concentration that inhibits the measured activity by half) was over 77.6 µM.
With `NNC(=O)Cn1c2ccc(Br)cc2c2nc3ccccc3nc21`, the EC50 is over 200 µM and the IC50 came out at 28.2 µM.
The matching figures for `CCOc1ccc(Nc2nc3c(s2)C(=O)c2ccccc2C3=O)cc1`: over 110 µM and 9.55 µM.
The corresponding values for `Cc1cn(C2CC(NC(=O)N(C)O)C(CO)O2)c(=O)[nH]c1=O` (stereo not given) are over 200 µM and over 200 µM.
The corresponding values for `CC(C)S1=C2C(=O)CC(C)(C)CC2=Nc2ccccc21` (stereo not given) are 61.7 µM and over 200 µM.
For the compound `COc1ccc(/C=c2\sc3n(c2=O)CCN=3)cc1`, the outcome was inactive.
Take `CSC(SC)(C(=O)O)c1cc(-c2c(Cl)cccc2Cl)no1`: the EC50 was over 81.3 µM and the IC50 was 70.8 µM.
The matching figures for `O=C1NC(=O)/C(=C/c2ccc(S(=O)(=O)N/N=C/c3ccccc3)cc2)N1`: over 200 µM and over 200 µM.
With `COC(=O)C12C(=O)CC3CCC1C32C(=O)OC` (stereo not given), the result was inactive.
In the case of `N#CC(C#N)=CN`, the EC50 was over 200 µM and the IC50 was over 200 µM.
For `COc1ccc(O)c2c(=O)ccccc12`, the result was inactive.
For `CNC(=O)OCn1cnc(Cl)c1Cl`, the EC50 was over 200 µM and the 50% inhibitory concentration (IC50) is over 200 µM.
On to `Cc1cc(N(CCC#N)CCC#N)ccc1/C=C1N=C(/C=C\c2ccccc2)OC\1=O`, for which the EC50 was over 17.8 µM and the IC50 is over 17.8 µM.
Turning to `Nc1ncnc2c1ncn2C1C(O)C(CO)C1CO` (stereo not given), the EC50 is over 186 µM and the 50% inhibitory concentration (IC50) is over 186 µM.
Consider `NS(=O)(=O)c1ccc(N=Cc2cc(Cl)cc(Cl)c2O)cc1`, for which the EC50 is over 200 µM and the IC50 worked out at 16.6 µM.
The matching figures for `Cc1ccc(-c2n[nH]c(=O)n2/N=C\c2ccccc2)cc1`: over 200 µM and 110 µM.
The matching figures for `CC(C)COCSCC(NC(=O)CNC(=O)C(Cc1ccccc1)NC(=O)CNC(=O)C(N)CSC(c1ccccc1)(c1ccccc1)c1ccccc1)C(=O)NC(Cc1ccccc1)C(=O)NCC(=O)OC(C)(C)C` (stereo not given) (H-C(Trt)GFGC(X14)FG-OtBu; configuration not given here): over 24 µM and over 24 µM.
Take `CC(C)(C)c1cc(Cc2ccc(S(C)(=O)=O)cc2)c(O)c(C(C)(C)C)c1`: the result was inactive.
The same measure, in the same setting: for `O=C(O)CCSC(=S)Nc1ccccc1` the value was “inactive”.
Consider `O=S(=O)(O)c1ccc(N=Nc2ccc(O)cc2O)cc1`, for which the EC50 was over 200 µM and the IC50 came out at 112 µM.
The matching figures for `CCCCCCCCCCCCCC/C(C(=O)OC)=C(/O)C(=O)OCC`: over 91.2 µM and 28.8 µM.
The corresponding values for `CCc1n[nH]c(=O)n1NC(=O)CCCC(=O)O` are over 200 µM and over 200 µM.
As for `Cc1cn(C2CC(OC(c3ccccc3)(c3ccccc3)c3ccccc3)C(CO)O2)c(=O)[nH]c1=O` (stereo not given), the EC50 was over 200 µM and the IC50 is 10.5 µM.
`COc1ccccc1N=Nc1c(S(=O)(=O)O)cc2cc(NC(=O)Nc3ccc4c(O)c(N=Nc5ccc(S(=O)(=O)O)cc5C)c(S(=O)(=O)O)cc4c3)ccc2c1O`: the result was active.
Consider `Cc1cn(C2CC(O[Si](C)(C)C(C)(C)C)C(/C=[N+](/[O-])C(C)(C)C)O2)c(=O)[nH]c1=O` (stereo not given), for which the EC50 is over 120 µM and the IC50 amounted to 33.9 µM.
The corresponding values for `CC1(C)C2C3CCC2C2C[S+]1CC23` are over 162 µM and 107 µM.
The corresponding values for `Clc1ccc(-c2nnc(-c3nsc4ccccc34)o2)cc1` are over 12 µM and over 12 µM.
The corresponding values for `CCN(CC)c1ccc2c(c1)Oc1ccc(N(C(C)=O)c3ccccc3)cc1C21OC(=O)c2ccccc21` (stereo not given) are over 200 µM and 6.03 µM.
Take `O=c1cn[nH]c2cccc(Cl)c12`: the EC50 was over 117 µM and the IC50 is over 117 µM.
Turning to `Cc1cc2[n-]c1/C=c1\[n-]/c(c(CCC(=O)O)c1C)=C\c1[n-]c(c(C)c1CCC(=O)O)/C=c1/cc(C)/c([n-]1)=C/2.[Ni]`, the EC50 is over 9.12 µM.
For `c1ncc(C23C4C5C6C4C2C6C53)[nH]1` (stereo not given), the EC50 is over 200 µM and the IC50 turned out to be 155 µM.
Turning to `C=C1CN(S(=O)(=O)c2ccc(C)cc2)CCN(Cc2ccccc2)CCN(S(=O)(=O)c2ccc(C)cc2)C1`, the EC50 was over 200 µM and the IC50 was over 200 µM.
Consider `O=C1c2cccc([N+](=O)[O-])c2C(=O)N1CC[P+](c1ccccc1)(c1ccccc1)c1ccccc1`, for which the EC50 was over 200 µM and the IC50 was over 200 µM.
With `O=c1cc(Cl)c(Cl)nn1-c1ccccc1`, the EC50 is over 56.2 µM and the 50% inhibitory concentration (IC50) came out at 9.77 µM.
Take `Cc1cc2cc3n(c2nn1)N=C(Cl)CC3`: the EC50 was over 339 µM and the IC50 is 6.31 µM.
Turning to `C=CCOc1ccc(N)c([N+](=O)[O-])c1`, the EC50 is over 200 µM and the IC50 is over 200 µM.
In the case of `S=C(N1CCN(c2ccccc2)CC1)N1CCN(c2ccccc2)CC1`, the EC50 is over 200 µM and the IC50 is over 200 µM.
For `O=C(Nc1ccc(/C=C\c2ccc(NC(=O)c3cc(S(=O)(=O)O)c4cccnc4c3O)cc2S(=O)(=O)O)c(S(=O)(=O)O)c1)c1cc(S(=O)(=O)O)c2cccnc2c1O`, the EC50 is over 100 µM and the IC50 was over 100 µM.
Regarding `N#CC1CC2(C(=O)C1=O)c1ccccc1-c1ccccc12` (stereo not given), the result was inactive.
Turning to `N#Cc1nc(C#N)n(C(=O)c2ccccc2)c1NC(=O)c1ccccc1`, the EC50 is over 200 µM and the half-maximal inhibitory concentration (IC50) is over 200 µM.
Consider `N#CNC1=NC(Cc2ccccc2)C(=O)N1CCc1c[nH]c2ccccc12` (stereo not given), for which the EC50 was over 200 µM and the IC50 worked out at 31.6 µM.
The matching figures for `CC(NC(=O)C(NC(=O)OCc1ccccc1)C(C)C)C(=O)NCC(=O)O` (stereo not drawn) (Cbz-Val-Ala-Gly-OH; configuration not given here): over 200 µM and over 200 µM.
The matching figures for `O=C(/C=C/c1ccccc1Cl)c1ccccc1Cl`: over 7.24 µM and over 7.24 µM.
`Cc1nn(C(=O)c2c(O)cccc2Cl)c(C)c1N=Nc1ccccc1`: the result was inactive.
In the case of `COc1ccc(S(=O)(=O)N/N=C/CN2C(=O)c3ccccc3C2=O)cc1`, the EC50 is over 135 µM and the IC50 is over 135 µM.
Regarding `CCCCNS(=O)(=O)c1ccc(-c2ccc3c(c2)-c2ccc(S(=O)(=O)NCCCC)cc2S3(=O)=O)cc1`, the EC50 is over 12.9 µM and the IC50 is over 12.9 µM.
With `O=C1c2cccc(O)c2C(=O)c2c(O)cccc21`, the EC50 was over 30.2 µM and the IC50 is over 30.2 µM.
For `Cc1cc(=O)n2c3c(c4c(cc13)c(CO)cc(=O)n4C)OC2`, the result was inactive.
Regarding `O=C1Cc2ccccc2N1/N=C\c1ccc(O)cc1`, the EC50 is over 372 µM and the 50% inhibitory concentration (IC50) was 39.8 µM.
The matching figures for `CCOC(=O)C1=C(O)C(=O)c2ccsc2C1=O`: over 708 µM and 120 µM.
The matching figures for `C1COC(N2CC3CCC(CC3)C2)=N1`: over 200 µM and over 200 µM.
Regarding `Cc1ns/c(=N\C(=S)N(C)C)n1C`, the result was inactive.
Regarding `COC(=O)c1ccc(/C=C2\CCc3ccccc3C2=O)cc1`, the EC50 was over 200 µM and the IC50 is over 200 µM.
